According to patent publication US6362166B1, “Antipicornaviral compounds and methods for their use and preparation” (Agouron Pharmaceuticals, Inc., priority 1996, dated 2002):
pEC50, pKi: −log10 of the molar value. Read-outs that look alike come from different tables or passages of the source.

How the values were obtained:
HI-HeLa cells = experiment: Cytotoxicity in mock-infected HI-HeLa cells (antirhinoviral assay, XTT); assay type: cell-based
Method: (§1) HI-HeLa cells were infected with HRV-14 at a multiplicity of infection (m.o.i.) of 0.13 (virus particles/cell) or mock-infected with medium only. Infected or mock-infected cells were resuspended at 8×10^5 cells per mL and incubated with appropriate concentration of compounds of formulas I and II. Two days later, XTT/PMS was added to test plates and the amount of formazan produced was quantified spectrophotometrically at 450/650 nm. […] The therapeutic index (TI) was calculated by dividing the CC50 by the EC50.
(§2) All strains of human rhinovirus (HRV) for use in this assay were purchased from American Type Culture Collection (ATCC), except for HRV serotype-14, which was produced from the infectious cDNA clone, constructed and supplied to us by Dr. Roland Rueckert at the Institue for Molecular Virology, University of Wisconsin, Madison, Wisc. HRV stocks were propagated, and antiviral assays were perforemd in HI-HeLa cells (ATCC). Cells were grwon in Minimal Essential Medium, available from Life Technologies, with 10% fetal bovine serum.

[1] = biological target: T1, Recombinant Rhinovirus 3C protease (RVP) serotype-14 (Human rhinovirus 14, UniProt P03303); experiment: Inhibition of Rhinovirus Protease (fluorescence resonance energy transfer assay), serotype 14; assay type: biochemical, human rhinovirus (HRV); conditions: RVP serotype-14; for INHIB (percent inhibition): 10 minute preincubation with 50 nM RVP; for kobs/I: progress curves in enzyme start experiments; for pKi: 10 minute preincubation, substrate start, read-out: INHIB (Ki)
T1 construct: Recombinant Rhinovirus 3C proteases from serotypes 14, 16, 2 or 89; made in house
T1 sequence (P03303 1538-1719): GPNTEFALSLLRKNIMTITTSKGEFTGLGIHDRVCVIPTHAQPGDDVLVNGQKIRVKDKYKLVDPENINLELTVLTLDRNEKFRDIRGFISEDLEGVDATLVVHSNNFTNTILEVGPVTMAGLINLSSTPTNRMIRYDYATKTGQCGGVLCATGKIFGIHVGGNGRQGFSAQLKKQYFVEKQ
Method: Stock solution (50 mM, in DMSO) of various compounds were prepared; dilutions were in the same solvent. […] Assays contained 2% DMSO, 50 mM tris pH 7.6, 1 mM EDTA, a compound at the indicated concentrations, approximately 1 μM substrate, and 50-100 nM protease. […] The kobs/I values were obtained from reactions initiated by addition of enzyme rather than substrate. RVP activity is measured in the fluorescence resonance energy transfer assay. […] In the uncleaved peptide, the EDANS fluorescence was quenched by the proximal DABCYL moeity. When the peptide was cleaved, the quenching was relieved, and activity was measured as an increase in fluorescence signal.
In the above table, all data is RVP serotype-14 unless otherwise noted in parentheses. All strains of human rhinovirus (HRV) were purchased from American Type Culture Collection (ATCC), except for serotype 14, which was produced from the infectious cDNA clone constructed and supplied to us by Dr. Roland Rueckert at the Institute for Molecular Virology, University of Wisconsin, Madison, Wisc. […] The data in the column designated kobs/I was measured from progress curves in enzyme start experiments.

HRV-14 = experiment: Antirhinoviral HI-HeLa Cell Culture Assay (Cell Protection Assay, XTT dye reduction); assay type: cell-based, human rhinovirus (HRV) serotype-14; conditions: HI-HeLa cells infected with HRV-14, m.o.i. 0.13; two days; XTT; read-out: EC50
Method: In the Cell Protection Assay, the ability of compounds to protect cells against HRV infection was measured by the XTT dye reduction method. This method is described in Weislow, O. S., R. Kiser, D. L. Fine, J. Bader, R. H. Shoemaker, and M. R. Boyd, J. Natl. Cancer Inst. 1989, 81, 577-586, which is incorporated herein by reference.
as §1, §2
The compounds were tested against control compounds WIN 51711, WIN 52084, and WIN 54954, all obtained from Sterling-Winthrop Pharmaceuticals, and control compound Pirodavir, obtained from Janssen Pharmaceuticals.

[2] = mock-infected HI-HeLa cells, two days, XTT, read-out: CC50

SMILES | CC50 (HI-HeLa cells) | INHIB (percent inhibition) ([1]; 0.1 μM compound) | kobs/I [1] | pEC50 (HRV-14) | pKi [1] | INHIB (percent inhibition) ([1]; 5 μM compound) | CC50 (HI-HeLa cells; [2]) | INHIB (percent inhibition) ([1]; […] compound)
CCOC(=O)/C=C/[C@H](CCC(N)=O)NC(=O)[C@H](Cc1ccc(Cl)cc1)NC(=O)c1cc2c(OC)cccc2[nH]1 [Compound 26, Ethyl-3-[N-(4-Methoxyindole-2-Carbonyl)-L-(4-Cl-Phe)-L-Gln]-E-Propenoate] | 44.7 µM | 52(0.1) percent | 5,400 M-1 sec-1 | 5.70 |  |  |  | 
CCNC(=O)/C=C/[C@H](CCC(N)=O)NC(=O)[C@H](Cc1ccccc1)NC(=O)[C@H](CC(C)C)NC(=O)OCc1ccccc1 [Compound 6, N-Ethyl-3-(CBZ-L-Leu-L-Phe-L-Gln)-E-Propenamide] | > 320 µM |  | 350 M⁻¹ s⁻¹ | < 3.49 | 4.49 |  |  | 
CC(C)C[C@H](NC(=O)OCc1ccccc1)C(=O)N[C@@H](Cc1ccccc1)C(=O)N[C@H](/C=C/S(=O)(=O)c1ccccc1)CCC(N)=O [Compound 10, Phenyl-[2-(CBZ-L-Leu-L-Phe-L-Gln)-E-Vinyl]Sulfone] | > 320 µM |  | 270 M⁻¹ s⁻¹ | 3.70 |  | 55(5) percent |  | 
CCOC(=O)/C=C/[C@H](CCC(N)=O)NC(=O)[C@H](Cc1ccc(O)cc1)NC(=O)[C@H](CC(C)C)NC(=O)OCc1ccccc1 [Compound 53] | > 320 µM |  | 11,320 M-1 sec-1 | 5.28 |  |  |  | 
CC(C)C[C@H](NC(=O)OCc1ccccc1)C(=O)N[C@@H](Cc1ccccc1)C(=O)N[C@H](/C=C/C(=O)C(C)(C)C)CCC(N)=O [Compound 52] | 5.6 µM |  | 15,000 M-1 sec-1 | 5.77 |  |  |  | 
CCOC(=O)/C=C/[C@H](CCC(N)=O)NC(=O)[C@H](Cc1cccc(F)c1)NC(=O)c1cc2c(OC)cccc2[nH]1 [Compound 28, Ethyl-3-[N-(4-Methoxyindole-2-Carbonyl)-L-(3-F-Phe)-L-Gln]-E-Propenoate] | 63.1 µM |  | 4,000 M-1 sec-1 | 5.35 | 4.24 |  |  | 
CC(C)C[C@H](NC(=O)OCc1ccccc1)C(=O)N[C@@H](Cc1ccccc1)C(=O)N[C@H](/C=C/C(=O)OCC1CCCC1)CCC(N)=O [Compound 19, Cyclopentylmethyl-3-(CBZ-L-Leu-L-Phe-L-Gln)-E-Propenoate] | > 100 µM |  | 7,900 M-1 sec-1 | 5.87 | 4.46 |  |  | 
CC(C)C[C@H](NC(=O)OCc1ccccc1)C(=O)N[C@@H](Cc1ccccc1)C(=O)N[C@H](/C=C/C(=O)N(C)c1ccccc1)CCC(N)=O [Compound 60] | > 320 µM |  | 575 M⁻¹ s⁻¹ | 3.80 | 5.30 |  |  | 
CC(C)C[C@H](NC(=O)OCc1ccccc1)C(=O)N[C@@H](Cc1ccccc1)C(=O)N[C@H](/C=C/c1ccno1)CCC(N)=O [Compound 150] |  |  | 573 M⁻¹ s⁻¹ | < 3.49 |  |  | > 320 µM | 
CCOC(=O)/C=C/[C@H](CNC(N)=O)NC(=O)[C@H](Cc1ccccc1)NC(=O)[C@H](CC(C)C)NC(=O)OCc1ccccc1 [Compound 16, Ethyl-3-[CBZ-L-Leu-L-Phe-L-(N-carbamyl-amino)-Ala]-E-Propenoate] | > 100 µM |  | 3,500 M-1 sec-1 | 4.49 |  |  |  | 40(0.25) percent
CCOC(=O)/C=C/[C@H](CCC(N)=O)NC(=O)[C@H](Cc1ccccc1)NC(=O)[C@H](CC(C)C)NC(=O)c1ccc(C(=O)NC)cc1 [Compound 129] | > 320 µM |  | 230,000 M-1 sec-1 | < 3.49 |  |  |  | 
CCOC(=O)/C=C/[C@H](CCC(N)=O)NC(=O)[C@H](C)NC(=O)[C@H](CC(C)C)NC(=O)OCc1ccccc1 [Compound 109] | > 320 µM |  | 1,348 M-1 sec-1 | 4.70 |  |  |  | 
CC(C)C[C@H](NC(=O)OCc1ccccc1)C(=O)N[C@@H](Cc1ccccc1)C(=O)N[C@H](/C=C/C(=O)c1ccc2c(c1)OCO2)CCC(N)=O [Compound 46] | 45 µM |  | 120,000 M-1 sec-1 | 5.49 |  |  |  | 
CCOC(=O)/C=C/[C@H](COC(=O)NC(=O)CCl)NC(=O)[C@H](Cc1ccccc1)NC(=O)[C@H](CC(C)C)NC(=O)OCc1ccccc1 [Compound 122] | 10 µM |  | 1,252 M-1 sec-1 | 5.75 |  |  |  | 
CCOC(=O)/C(C)=C/[C@H](CCC(N)=O)NC(=O)[C@H](Cc1ccccc1)NC(=O)[C@@H](NC(=O)SCC)C(C)(C)C [Compound 168, Ethyl-2-Methyl-3-[Ethylthiocarbonyl-L-α-(t-Butyl-Gly)-L-Phe-L-Gln]-E-Propenoate] | > 100 µM |  | 37,800 M-1 sec-1 | 6.49 |  |  |  | 
CCOC(=O)/C=C/[C@H](CCC(N)=O)NC(=O)[C@H](Cc1ccccc1)NC(=O)[C@H](CC(C)C)NC(=O)C(C)C [Compound 117] | > 320 µM |  | 18,760 M-1 sec-1 | 6.00 |  |  |  | 
CCOC(=O)/C=C/[C@H](CCC(N)=O)NC(=O)[C@H](Cc1ccc(OC(C)=O)cc1)NC(=O)[C@H](CC(C)C)NC(=O)OCc1ccccc1 [Compound 100] |  |  | 1,200 M-1 sec-1 | 4.95 |  |  | > 320 µM | 
CCOC(=O)/C=C/[C@H](CCC(N)=O)NC(=O)[C@H](CC)NC(=O)[C@H](CC(C)C)NC(=O)OCc1ccccc1 [Compound 108] | > 320 µM |  | 4,694 M-1 sec-1 | 5.22 |  |  |  | 
CCOC(=O)/C(C)=C/[C@H](CCC(N)=O)NC(=O)[C@H](Cc1ccccc1)NC(=O)[C@H](CC(C)C)NC(=O)OCc1ccccc1 [Compound 82] | > 320 µM |  | 7,300 M-1 sec-1 | 5.52 | 4.59 |  |  | 
CCOC(=O)/C=C/[C@H](CCC(N)=O)NC(=O)[C@H](CSC)NC(=O)[C@H](CC(C)C)NC(=O)OCc1ccccc1 [Compound 142] | > 320 µM |  | 2,929 M-1 sec-1 | 5.05 |  |  |  | 
CCOC(=O)/C=C/[C@H](CCC(N)=O)NC(=O)[C@H](Cc1ccccc1)NC(=O)[C@@H](NC(=O)SC1CCCC1)C(C)(C)SC [Compound 178, Ethyl-3-[Cyclopentylthiocarbonyl-L-(S-Me-Pen)-L-Phe-L-Gln]-E-Propenoate] | > 100 µM |  | 286,300 M-1 sec-1 | 7.00 |  |  |  | 
CC(C)CC(NC(=O)OCc1ccccc1)C(=O)NC(Cc1ccccc1)C(=O)NC(C=CC(=O)N1CCC(O)C1)CCC(N)=O (stereo not drawn) [Compound 39] | > 320 µM |  | 1,200 M-1 sec-1 | < 3.49 |  |  |  | 
CCOC(=O)/C=C/[C@H](CCC(N)=O)NC(=O)[C@H](Cc1ccccc1)NC(=O)OCc1ccccc1 [Compound 30, Ethyl-3-(CBZ-L-Phe-L-Gln)-E-Propenoate] | 100 µM |  | 430 M⁻¹ s⁻¹ | 5.25 | 3.43 |  |  | 
CC(C)C[C@H](NC(=O)OCc1ccccc1)C(=O)N[C@@H](Cc1ccccc1)C(=O)N[C@H](/C=C/[N+](=O)[O-])CCC(N)=O [Compound 125] | 100 µM |  | >500,000 M-1 sec-1 | < 4.00 |  |  |  | 
CCOC(=O)/C=C/[C@H](CCC(N)=O)NC(=O)[C@H](Cc1ccccc1)NC(=O)[C@H](CC(C)C)NC(=O)c1ccccc1 [Compound 67] | > 320 µM |  | 9,600 M-1 sec-1 | 5.28 |  |  |  | 
CCOC(=O)/C=C/[C@H](CCC(N)=O)NC(=O)[C@H](Cc1ccc(OP(=O)(O)O)cc1)NC(=O)[C@H](CC(C)C)NC(=O)OCc1ccccc1 [Compound 105] |  |  | 1,200 M-1 sec-1 | 4.85 |  |  | > 320 µM | 
CC(C)C[C@H](NC(=O)OCc1ccccc1)C(=O)N[C@@H](Cc1ccccc1)C(=O)N[C@H](/C=C/C(=O)n1cccc1)CCC(N)=O [Compound 66] | 6.3 µM |  | 400,000 M-1 sec-1 | 5.85 |  |  |  | 
